# In paper doi:10.1101/2022.06.05.494897v1 (biorxiv, 2022):
# Where two headings read alike, the source gives them in different places.
# Tests used:
# Assay type in all cases: biochemical
# human cathepsin L = human cathepsin L (Homo sapiens, UniProt P07711); assay: fluorogenic peptide cleavage assay
# human cathepsin B = human cathepsin B (Homo sapiens, UniProt P07858); assay: fluorogenic peptide cleavage assay
# SARS-CoV-2 3CL^pro = SARS-CoV-2 3CL^pro (Severe acute respiratory syndrome coronavirus 2, UniProt P0DTD1)
# Chain of human cathepsin L (P07711 114-333 limits assumed): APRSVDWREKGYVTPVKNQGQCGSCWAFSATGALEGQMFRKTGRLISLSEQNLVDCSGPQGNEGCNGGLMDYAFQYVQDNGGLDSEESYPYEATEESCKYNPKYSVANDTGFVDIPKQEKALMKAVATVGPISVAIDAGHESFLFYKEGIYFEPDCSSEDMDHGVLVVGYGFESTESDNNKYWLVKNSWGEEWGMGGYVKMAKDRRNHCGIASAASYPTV
molecule,measurement,setting,value
"CC(C)C[C@H](NC(=O)c1cc2c(F)cccc2[nH]1)C(=O)NN(C[C@@H]1CCNC1=O)C(=O)[C@H](F)Cl [8a, N-((S)-1-(2-((R)-2-Chloro-2-fluoroacetyl)-2-(((S)-2-oxopyrrolidin-3-yl)methyl)hydrazineyl)-4-methyl-1-oxopentan-2-yl)-4-fluoro-1H-indole-2-carboxamide]",IC50,human cathepsin L,> 10 µM
same,IC50,human cathepsin B,> 10 µM
"COc1cccc2[nH]c(C(=O)N[C@@H](CC(C)C)C(=O)NN(C[C@H]3CCNC3=O)C(=O)[C@H](F)Cl)cc12 [10b, N-((S)-1-(2-((R)-2-Chloro-2-fluoroacetyl)-2-(((R)-2-oxopyrrolidin-3-yl)methyl)hydrazineyl)-4-methyl-1-oxopentan-2-yl)-4-methoxy-1H-indole-2-carboxamide]",IC50,SARS-CoV-2 3CL^pro,0.0156 µM
N-((S)-1-(2-Acetyl-2-(((S)-2-oxopyrrolidin-3-yl)methyl)hydrazineyl)-4-methyl-1-oxopentan-2-yl)-4-fluoro-1H-indole-2-carboxamide [compound 12],IC50,"SARS-CoV-2 3CL^pro; […], no CFA warhead, 30 min preincubation, pH 7.3, 1 mM DTT, ambient temperature",0.178 µM
